Experimental data reported in ChEMBL document CHEMBL1152261, “2-Aminobenzimidazoles as potent ITK antagonists: trans-stilbene-like moieties targeting the kinase specificity pocket” (Bioorg Med Chem Lett, 2008).

Assays:
[1] = target: Insulin receptor (Homo sapiens, UniProt P06213); assay: Inhibition of IRK by DELPHIA
[2] = target: T1, Tyrosine-protein kinase ITK/TSK (Homo sapiens, UniProt Q08881); assay: Inhibition of ITK by DELPHIA
T1 sequence (Q08881 whole entry): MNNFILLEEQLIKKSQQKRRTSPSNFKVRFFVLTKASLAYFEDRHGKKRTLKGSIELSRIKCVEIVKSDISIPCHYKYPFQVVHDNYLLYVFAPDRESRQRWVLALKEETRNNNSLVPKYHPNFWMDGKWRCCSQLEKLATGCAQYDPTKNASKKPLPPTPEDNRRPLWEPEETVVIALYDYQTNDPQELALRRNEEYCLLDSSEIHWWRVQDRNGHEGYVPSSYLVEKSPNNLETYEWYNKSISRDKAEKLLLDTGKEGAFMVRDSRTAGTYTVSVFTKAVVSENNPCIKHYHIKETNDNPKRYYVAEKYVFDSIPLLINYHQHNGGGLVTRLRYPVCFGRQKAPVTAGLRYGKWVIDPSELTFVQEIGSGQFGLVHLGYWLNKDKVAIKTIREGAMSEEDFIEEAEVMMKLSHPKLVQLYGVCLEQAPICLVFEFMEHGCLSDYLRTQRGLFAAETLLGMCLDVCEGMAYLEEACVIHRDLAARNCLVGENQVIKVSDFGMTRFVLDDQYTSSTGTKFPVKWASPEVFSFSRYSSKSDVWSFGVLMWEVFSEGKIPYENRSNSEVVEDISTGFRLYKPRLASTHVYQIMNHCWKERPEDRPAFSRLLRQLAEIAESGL

[3] = target: T1, Tyrosine-protein kinase ITK/TSK; assay: Antagonist activity at ITK expressed in chicken DT40 B cells assessed as inhibition of calcium flux; format: functional, cell-based
[4] = tested on: T-cell; assay: Inhibition of anti-CD3/anti-CD28-stimulated IL2 production in human CD4+ T cells
[5] = target: T2, Tyrosine-protein kinase TXK (Homo sapiens, UniProt P42681); assay: Inhibition of TXK
T2 sequence (P42681 whole entry): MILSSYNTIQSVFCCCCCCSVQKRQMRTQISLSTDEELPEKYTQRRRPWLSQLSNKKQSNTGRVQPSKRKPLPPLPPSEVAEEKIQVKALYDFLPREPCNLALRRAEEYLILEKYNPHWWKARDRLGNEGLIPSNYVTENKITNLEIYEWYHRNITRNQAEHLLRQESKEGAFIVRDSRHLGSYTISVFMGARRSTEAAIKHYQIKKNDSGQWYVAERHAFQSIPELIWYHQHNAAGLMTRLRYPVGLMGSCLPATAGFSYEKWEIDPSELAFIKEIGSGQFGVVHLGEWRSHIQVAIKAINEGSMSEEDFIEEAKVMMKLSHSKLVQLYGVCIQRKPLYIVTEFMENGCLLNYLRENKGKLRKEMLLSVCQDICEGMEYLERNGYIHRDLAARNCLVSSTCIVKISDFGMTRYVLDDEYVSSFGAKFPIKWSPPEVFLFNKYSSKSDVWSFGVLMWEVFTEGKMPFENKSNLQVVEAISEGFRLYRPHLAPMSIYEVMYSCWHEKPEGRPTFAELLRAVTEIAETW

[6] = target: Tyrosine-protein kinase BTK (Homo sapiens, UniProt Q06187); assay: Inhibition of BTK
Sequence of Tyrosine-protein kinase BTK (Q06187 whole entry): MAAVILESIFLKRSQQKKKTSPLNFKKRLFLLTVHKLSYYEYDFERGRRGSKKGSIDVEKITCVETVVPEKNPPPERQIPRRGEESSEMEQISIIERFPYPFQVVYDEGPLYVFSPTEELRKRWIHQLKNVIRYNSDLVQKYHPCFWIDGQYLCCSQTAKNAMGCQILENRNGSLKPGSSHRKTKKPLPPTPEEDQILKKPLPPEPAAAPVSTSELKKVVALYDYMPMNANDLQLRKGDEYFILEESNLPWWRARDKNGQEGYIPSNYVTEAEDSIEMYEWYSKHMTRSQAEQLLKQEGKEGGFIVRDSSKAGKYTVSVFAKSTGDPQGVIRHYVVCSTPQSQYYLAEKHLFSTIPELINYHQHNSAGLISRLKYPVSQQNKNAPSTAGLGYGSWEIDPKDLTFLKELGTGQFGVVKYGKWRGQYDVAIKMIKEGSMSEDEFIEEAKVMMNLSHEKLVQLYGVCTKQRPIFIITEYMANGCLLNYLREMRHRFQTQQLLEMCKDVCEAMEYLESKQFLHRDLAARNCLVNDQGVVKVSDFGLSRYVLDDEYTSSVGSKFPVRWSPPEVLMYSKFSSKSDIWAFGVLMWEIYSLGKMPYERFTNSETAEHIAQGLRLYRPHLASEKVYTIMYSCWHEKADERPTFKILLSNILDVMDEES

Sequence of Insulin receptor (P06213 28-758 limits assumed): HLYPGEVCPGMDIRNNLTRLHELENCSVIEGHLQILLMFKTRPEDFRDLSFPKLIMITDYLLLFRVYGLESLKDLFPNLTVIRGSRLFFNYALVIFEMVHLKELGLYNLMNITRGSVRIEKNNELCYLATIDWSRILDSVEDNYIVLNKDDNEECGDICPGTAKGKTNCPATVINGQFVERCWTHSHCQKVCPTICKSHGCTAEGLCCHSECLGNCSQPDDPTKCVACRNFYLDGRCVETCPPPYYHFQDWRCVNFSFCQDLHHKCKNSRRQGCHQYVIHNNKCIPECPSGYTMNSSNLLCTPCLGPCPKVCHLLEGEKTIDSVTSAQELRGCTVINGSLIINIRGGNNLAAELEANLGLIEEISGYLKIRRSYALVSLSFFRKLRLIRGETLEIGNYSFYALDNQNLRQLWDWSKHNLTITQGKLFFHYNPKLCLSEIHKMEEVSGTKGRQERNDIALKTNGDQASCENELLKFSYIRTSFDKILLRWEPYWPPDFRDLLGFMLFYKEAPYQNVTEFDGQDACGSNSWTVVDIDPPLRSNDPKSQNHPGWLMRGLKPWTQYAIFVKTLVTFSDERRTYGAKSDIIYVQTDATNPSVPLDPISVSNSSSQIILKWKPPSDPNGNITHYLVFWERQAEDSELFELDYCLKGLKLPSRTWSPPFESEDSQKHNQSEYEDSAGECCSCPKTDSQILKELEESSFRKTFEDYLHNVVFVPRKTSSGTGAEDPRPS
Sequence of Insulin receptor (P06213 763-1382 limits assumed): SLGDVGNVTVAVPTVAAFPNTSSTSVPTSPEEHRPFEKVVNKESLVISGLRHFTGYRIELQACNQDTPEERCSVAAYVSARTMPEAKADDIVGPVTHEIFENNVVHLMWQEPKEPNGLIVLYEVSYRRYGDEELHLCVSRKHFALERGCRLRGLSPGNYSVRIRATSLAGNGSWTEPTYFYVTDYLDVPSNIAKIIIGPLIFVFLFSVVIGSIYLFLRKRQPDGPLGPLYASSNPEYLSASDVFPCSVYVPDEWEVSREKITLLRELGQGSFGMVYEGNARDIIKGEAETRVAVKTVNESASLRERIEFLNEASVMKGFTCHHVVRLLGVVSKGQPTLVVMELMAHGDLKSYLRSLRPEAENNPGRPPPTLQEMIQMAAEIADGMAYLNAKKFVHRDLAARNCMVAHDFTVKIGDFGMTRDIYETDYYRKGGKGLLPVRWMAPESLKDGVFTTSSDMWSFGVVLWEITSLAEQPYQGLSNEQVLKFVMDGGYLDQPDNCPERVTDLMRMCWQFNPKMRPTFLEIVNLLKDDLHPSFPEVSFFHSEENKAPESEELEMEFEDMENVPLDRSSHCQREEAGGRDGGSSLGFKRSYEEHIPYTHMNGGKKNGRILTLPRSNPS

| SMILES | IC50 [1] | other results |
| --- | --- | --- |
| CN(C(=O)c1ccccc1)c1ccc2c(c1)[nH]/c(=N\C(=O)c1ccc(/C=C/c3ccncc3)s1)n2CCC(N)=O | > 5 µM |  |
| CN(C(=O)c1ccccc1)c1ccc2c(c1)[nH]/c(=N\C(=O)c1ccc(/C=C/c3ccccc3N)s1)n2CCC(N)=O | 1.95 µM |  |
| CN(C(=O)c1ccccc1)c1ccc2c(c1)[nH]/c(=N\C(=O)c1ccc(/C=C/c3cccc(N)c3)s1)n2CCC(N)=O | 4.9 µM |  |
| CN(C(=O)c1ccccc1)c1ccc2c(c1)[nH]/c(=N\C(=O)c1ccc(/C=C/c3ccc(C(F)(F)F)cc3)s1)n2CCC(N)=O | > 5 µM |  |
| CN(C(=O)c1ccccc1)c1ccc2c(c1)nc(NC(=O)c1ccc(/C=C/c3ccc(N)cc3)s1)n2CCC(N)=O | 3.3 µM |  |
| CN(C(=O)c1ccccc1)c1ccc2c(c1)[nH]/c(=N\C(=O)c1ccc(/C=C/c3cn[nH]c3)s1)n2CCC(N)=O |  | IC50 [4]: 3000 nM |
| COC(=O)/C=C(\C)c1ccc(C(=O)/N=c2\[nH]c3cc(N(C)C(=O)c4ccccc4)ccc3n2CCC(N)=O)s1 | 3.6 µM |  |
| C/C(=C\c1cccnc1)c1ccc(C(=O)/N=c2\[nH]c3cc(N(C)C(=O)c4ccccc4)ccc3n2CCC(N)=O)s1 | > 5 µM |  |
| COC(=O)/C=C/c1ccc(C(=O)/N=c2\[nH]c3cc(N(C)C(=O)c4ccccc4)ccc3n2CCC(N)=O)s1 | > 5 µM |  |
| CN(C(=O)c1ccccc1)c1ccc2c(c1)[nH]/c(=N\C(=O)c1ccc(/C=C/c3cnccn3)s1)n2CCC(N)=O | > 5 µM | IC50 [2]: 8 nM; IC50 [3]: 810 nM |
| CN(C(=O)c1ccccc1)c1ccc2c(c1)[nH]/c(=N\C(=O)c1ccc(/C=C/c3ccccc3)s1)n2CCC(N)=O | 0.97 µM |  |
| CN(C(=O)c1ccccc1)c1ccc2c(c1)nc(NC(=O)c1cccs1)n2CCC(N)=O |  | IC50 [4]: > 5000 nM |
| CN(C(=O)c1ccccc1)c1ccc2c(c1)[nH]/c(=N\C(=O)c1ccc(/C=C/c3ccccc3C(F)(F)F)s1)n2CCC(N)=O | > 5 µM |  |
| CN(C(=O)c1ccccc1)c1ccc2c(c1)[nH]/c(=N\C(=O)c1ccc(/C=C/c3cccnc3)s1)n2CCC(N)=O | > 5 µM |  |
| C/C(=C\C#N)c1ccc(C(=O)/N=c2\[nH]c3cc(N(C)C(=O)c4ccccc4)ccc3n2CCC(N)=O)s1 | 4.5 µM |  |
| C/C(=C\c1ccncc1)c1ccc(C(=O)/N=c2\[nH]c3cc(N(C)C(=O)c4ccccc4)ccc3n2CCC(N)=O)s1 | > 5 µM |  |
| C/C(=C\c1ccccc1)c1ccc(C(=O)Nc2nc3cc(N(C)C(=O)c4ccccc4)ccc3n2CCC(N)=O)s1 | > 5 µM |  |
| COc1ccc(/C=C/c2ccc(C(=O)/N=c3\[nH]c4cc(N(C)C(=O)c5ccccc5)ccc4n3CCC(N)=O)s2)cc1 | > 5 µM |  |

Second part, led by results:

| IC50 [1] | SMILES | other results |
| --- | --- | --- |
| 3.8 µM | CN(C(=O)c1ccccc1)c1ccc2c(c1)[nH]/c(=N\C(=O)c1ccc(/C=C/c3cccc(N)n3)s1)n2CCC(N)=O | IC50 [2]: 7 nM; IC50 [3]: 2000 nM |
| 4.3 µM | CN(C(=O)c1ccccc1)c1ccc2c(c1)[nH]/c(=N\C(=O)c1ccc(/C=C/c3cccc([N+](=O)[O-])c3)s1)n2CCC(N)=O |  |
| > 5 µM | COc1cccc(/C=C/c2ccc(C(=O)Nc3nc4cc(N(C)C(=O)c5ccccc5)ccc4n3CCC(N)=O)s2)c1 |  |
| 0.48 µM | C=Cc1ccc(C(=O)Nc2nc3cc(N(C)C(=O)c4ccccc4)ccc3n2CCC(N)=O)s1 |  |
| > 5 µM | CN(C(=O)c1ccccc1)c1ccc2c(c1)[nH]/c(=N\C(=O)c1ccc(/C=C/n3ccnc3)s1)n2CCC(N)=O | IC50 [2]: 12 nM; IC50 [3]: 2200 nM |
| > 5 µM | CN(C(=O)c1ccccc1)c1ccc2c(c1)nc(NC(=O)c1ccc(/C=C/c3cccc(C(F)(F)F)c3)s1)n2CCC(N)=O |  |
| 2.2 µM | CN(C(=O)c1ccccc1)c1ccc2c(c1)[nH]/c(=N\C(=O)c1ccc(/C=C/c3ccc(O)cc3)s1)n2CCC(N)=O |  |
| > 5 µM | C=C(C)c1ccc(C(=O)/N=c2\[nH]c3cc(N(C)C(=O)c4ccccc4)ccc3n2CCC(N)=O)s1 |  |
| 1.5 µM | CN(C(=O)c1ccccc1)c1ccc2c(c1)[nH]/c(=N\C(=O)c1ccc(/C=C/c3ncc(N)cn3)s1)n2CCC(N)=O | IC50 [5]: 700 nM; IC50 [2]: 5 nM; IC50 [3]: 410 nM; IC50 [6]: 5 nM; IC50 [4]: 1600 nM |
| > 5 µM | COc1ccccc1/C=C/c1ccc(C(=O)/N=c2\[nH]c3cc(N(C)C(=O)c4ccccc4)ccc3n2CCC(N)=O)s1 |  |
